# Key:
# Cannabinoid receptor 2 [1] = molecular target: T1, Cannabinoid receptor 2 (Rattus norvegicus, UniProt Q9QZN9); assay: Radioligand Binding Assay: HEK293 cells stably expressing rat CB2 receptors were grown until a confluent monolayer was formed. Briefly, the cells were harvested and homogenized in TE buffer (50 mM Tris-HCl, 1 mM MgCl2, and 1 mM EDTA) using a polytron for 2x 10 second bursts in the presence of protease inhibitors, followed by centrifugation at 45,000x g for 20 minutes. The final membrane pellet was re-homogenized in storage buffer (50 mM Tris-HCl, 1 mM MgCl2, and 1 mM EDTA and 10% sucrose) and frozen at -78 C. until used. Saturation binding reactions were initiated by the addition of membrane preparation (protein concentration of 20 ug/well for rat CB2) into wells of a deep well plate containing [3H]CP 55,940 (120 Ci/mmol, a nonselective CB agonist commercially available from Tocris) in assay buffer (50 mM Tris, 2.5 mM EDTA, 5 mM MgCl2, and 0.5 mg/mL fatty acid free BSA, pH 7.4). After 45 min incubation at 30u C., binding reaction was terminated by the addition of 300 ul/well of cold assay buffer.; assay type: cell membranes
# T1 sequence (Q9QZN9 whole entry): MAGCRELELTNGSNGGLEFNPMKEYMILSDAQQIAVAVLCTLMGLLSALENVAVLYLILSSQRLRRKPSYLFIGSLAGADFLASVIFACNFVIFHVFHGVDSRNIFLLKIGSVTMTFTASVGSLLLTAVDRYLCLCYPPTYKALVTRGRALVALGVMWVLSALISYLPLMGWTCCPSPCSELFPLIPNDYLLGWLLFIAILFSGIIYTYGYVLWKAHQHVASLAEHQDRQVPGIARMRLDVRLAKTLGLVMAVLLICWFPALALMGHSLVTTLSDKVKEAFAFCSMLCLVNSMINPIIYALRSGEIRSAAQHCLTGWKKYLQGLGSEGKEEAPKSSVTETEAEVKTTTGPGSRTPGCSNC
# Cannabinoid receptor 2 [2] = molecular target: Cannabinoid receptor 2 (Homo sapiens, UniProt P34972); assay: Radioligand Binding Assay: HEK293 cells stably expressing human CB2 receptors were grown until a confluent monolayer was formed. Briefly, the cells were harvested and homogenized in TE buffer (50 mM Tris-HCl, 1 mM MgCl2, and 1 mM EDTA) using a polytron for 2x 10 second bursts in the presence of protease inhibitors, followed by centrifugation at 45,000xg for 20 minutes. The final membrane pellet was re-homogenized in storage buffer (50 mM Tris-HCl, 1 mM MgCl2, and 1 mM EDTA and 10% sucrose) and frozen at -78 C. until used. Saturation binding reactions were initiated by the addition of membrane preparation (protein concentration of 5 ug/well for human CB2) into wells of a deep well plate containing [3H]CP 55,940 (120 Ci/mmol, a nonselective CB agonist commercially available from Tocris) in assay buffer (50 mM Tris, 2.5 mM EDTA, 5 mM MgCl2, and 0.5 mg/mL fatty acid free BSA, pH 7.4). After 90 min incubation at 30 C., binding reaction was terminated by the addition of 300 uL/well of cold assay buffer.; assay type: cell membranes
# Chain of Cannabinoid receptor 2 (Homo sapiens, UniProt P34972) (P34972 whole entry): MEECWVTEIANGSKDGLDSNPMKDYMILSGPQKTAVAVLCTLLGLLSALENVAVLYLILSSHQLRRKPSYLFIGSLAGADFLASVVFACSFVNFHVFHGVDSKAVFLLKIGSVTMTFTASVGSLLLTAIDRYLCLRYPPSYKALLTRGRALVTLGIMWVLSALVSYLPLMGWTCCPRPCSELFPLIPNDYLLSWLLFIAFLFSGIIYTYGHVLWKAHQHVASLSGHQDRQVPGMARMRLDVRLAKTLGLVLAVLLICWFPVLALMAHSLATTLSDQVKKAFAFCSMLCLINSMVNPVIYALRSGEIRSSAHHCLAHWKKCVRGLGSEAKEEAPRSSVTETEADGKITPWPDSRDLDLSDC
smiles,measurement,setting,value
CCCCn1nc(C(C)(C)C)s/c1=N\C(=O)c1cc(C(F)(F)F)ccc1ON=C(C)C,Ki,Cannabinoid receptor 2 [1],5.2 nM
same,Ki,Cannabinoid receptor 2 [2],12 nM

# Reference: ChEMBL document CHEMBL3639359, “Compounds as cannabinoid receptor ligands” (2014)
